This is an account of results in US4490529A, “Cysteic acid and homocysteic acid analogues of methotrexate and aminopterin” (Dana-Farber Cancer Institute, Inc., priority 1983, dated 1984).

A short description of this data set: Solubility in water and precipitation behaviour. Format: physicochemical. On the procedure:
4-Amino-4-deoxy-N^10 -methylpteroic acid dihydrate (720 mg, 2.0 mmoles) is added in small portions to a stirred solution of diethylphosphorocyanidate (915 mg, 5 mmoles) and triethylamine (500 mg, 5 mmoles) in N,N-dimethylformamide (DMF) (75 ml) previously dried over Linde 4A molecular sieves. The solution is stirred at room temperature overnight, and an extra 25% of diethyl phosphorocyanidate and Et3 N is added. TLC (silica gel, 4:1 chloroform-methanol) indicates the formation of the activated intermediate to be complete. The silylated D,L-homocysteic acid triethylammonium salt (1.8 g, 4 mmoles) is then added, and the reaction mixture is stirred at room temperature for 44 hours. After addition of a few milliliters of water, the solvent is removed with the aid of a rotary evaporator and the residue is dissolved in 3 percent ammonium bicarbonate, with a few drops of concentrated ammonia being added as needed. […] The solution is taken up in a minimum of H2 O with just enough Nh4 OH added to dissolve all the solid, and the solution is applied to a DEAE-cellulose column that has been pre-equilibrated with 3 percent ammonium bicarbonate and then washed to neutrality with H2 O. The column is eluted with a large volume of H2 O, and then again with 3% NH4 HCO3. […] Individual 5-10 ml volumes of the NH4 HCO3 eluate are monitored by TLC. […]

For `CN(Cc1cnc2nc(N)nc(N)c2n1)c1ccc(C(=O)NC(CCS(=O)(=O)O)C(=O)O)cc1` (racemic) [mAPA-D,L-HCysA, N-(4-Amino-4-deoxy-N^10-methylpteroyl)-D,L-homocysteic acid], the solubility in water entry is listed as “very soluble in water”. In addition, the “precipitation from basic solution” value (adjustment of the pH to 6, in contrast to methotrexate) is given as “cannot be precipitated from basic solution on adjustment of the pH to 6”.
